Columns and labels:
Triticum aestivum [1] = test: Phytotoxicity in Triticum aestivum (wheat) assessed as root growth at 500 ug/ml pre-soaked for 60 min measured after 120 hr relative to acetone-treated control; type: organism-based; conditions: in vivo
Sitophilus oryzae [2] = test: Insecticidal activity against Sitophilus oryzae (rice weevil) assessed as mortality at 0.05 ug/g after 5 days by food poison technique relative to acetone-treated control; type: functional
Triticum aestivum [3] = test: Phytotoxicity in Triticum aestivum (wheat) assessed as root growth at 500 ug/ml pre-soaked for 30 min measured after 120 hr relative to acetone-treated control; type: organism-based; conditions: in vivo
Sitophilus oryzae [4] = test: Insecticidal activity against Sitophilus oryzae (rice weevil) assessed as mortality after 20 days by food poison technique; type: functional
Sitophilus oryzae [5] = test: Insecticidal activity against Sitophilus oryzae (rice weevil) assessed as mortality at 600 ug/g after 10 days by food poison technique relative to acetone-treated control; type: functional
Sitophilus oryzae [6] = test: Insecticidal activity against Sitophilus oryzae (rice weevil) assessed as mortality at 600 ug/g after 5 days by food poison technique relative to acetone-treated control; type: functional
Sitophilus oryzae [7] = test: Insecticidal activity against Sitophilus oryzae (rice weevil) assessed as mortality at 3000 ug/g after 15 days by food poison technique relative to acetone-treated control; type: functional
Triticum aestivum [8] = test: Phytotoxicity in Triticum aestivum (wheat) assessed as germination rate at 500 ug/ml pre-soaked for 30 min measured after 24 hr relative to acetone-treated control; type: organism-based; conditions: in vivo
Sitophilus oryzae [9] = test: Insecticidal activity against Sitophilus oryzae (rice weevil) assessed as mortality at 1000 ug/g after 15 days by food poison technique relative to acetone-treated control; type: functional
Triticum aestivum [10] = test: Phytotoxicity in Triticum aestivum (wheat) assessed as germination rate at 500 ug/ml pre-soaked for 60 min measured after 72 hr relative to acetone-treated control; type: organism-based; conditions: in vivo
Sitophilus oryzae [11] = test: Insecticidal activity against Sitophilus oryzae (rice weevil) assessed as mortality at 0.05 ug/g after 15 days by food poison technique relative to acetone-treated control; type: functional
Sitophilus oryzae [12] = test: Insecticidal activity against Sitophilus oryzae (rice weevil) assessed as mortality at 400 ug/g after 5 days by food poison technique relative to acetone-treated control; type: functional
Sitophilus oryzae [13] = test: Insecticidal activity against Sitophilus oryzae (rice weevil) assessed as mortality at 600 ug/g after 20 days by food poison technique relative to acetone-treated control; type: functional
Sitophilus oryzae [14] = test: Repellent activity against Sitophilus oryzae (rice weevil) assessed as settling responses at 100 ug/g preincubated for 12 hr prior to inoculation measured after 24 hr by food preference chamber method (reference value: 49.45 +/- 2.65 %); type: functional
Sitophilus oryzae [15] = test: Insecticidal activity against Sitophilus oryzae (rice weevil) assessed as increase in mortality after 5 to 20 days by food poison technique; type: functional, organism-based
Triticum aestivum [16] = test: Phytotoxicity in Triticum aestivum (wheat) assessed as germination rate at 500 ug/ml pre-soaked for 60 min measured after 96 hr relative to acetone-treated control; type: organism-based; conditions: in vivo
Triticum aestivum [17] = test: Phytotoxicity in Triticum aestivum (wheat) assessed as root growth at 500 ug/ml pre-soaked for 60 min measured after 72 hr relative to acetone-treated control; type: organism-based; conditions: in vivo
Triticum aestivum [18] = test: Phytotoxicity in Triticum aestivum (wheat) assessed as germination rate at 500 ug/ml pre-soaked for 30 min measured after 72 hr relative to acetone-treated control; type: organism-based; conditions: in vivo
Sitophilus oryzae [19] = test: Insecticidal activity against Sitophilus oryzae (rice weevil) assessed as mortality at 3000 ug/g after 5 days by food poison technique relative to acetone-treated control; type: functional
Sitophilus oryzae [20] = test: Insecticidal activity against Sitophilus oryzae (rice weevil) assessed as mortality after 5 days by food poison technique; type: functional
Sitophilus oryzae [21] = test: Insecticidal activity against Sitophilus oryzae (rice weevil) assessed as mortality at 2000 ug/g after 5 days by food poison technique relative to acetone-treated control; type: functional
Sitophilus oryzae [22] = test: Insecticidal activity against Sitophilus oryzae (rice weevil) assessed as mortality at 400 ug/g after 10 days by food poison technique relative to acetone-treated control; type: functional
Sitophilus oryzae [23] = test: Insecticidal activity against Sitophilus oryzae (rice weevil) assessed as mortality at 0.05 ug/g after 10 days by food poison technique relative to acetone-treated control; type: functional
Sitophilus oryzae [24] = test: Insecticidal activity against Sitophilus oryzae (rice weevil) assessed as mortality after 15 days by food poison technique; type: functional
Sitophilus oryzae [25] = test: Insecticidal activity against Sitophilus oryzae (rice weevil) assessed as mortality at 400 ug/g after 15 days by food poison technique relative to acetone-treated control; type: functional
Sitophilus oryzae [26] = test: Repellent activity against Sitophilus oryzae (rice weevil) assessed as settling responses at 50 ug/g preincubated for 12 hr prior to inoculation measured after 24 hr by food preference chamber method (reference value: 49.45 +/- 2.65 %); type: functional
Sitophilus oryzae [27] = test: Insecticidal activity against Sitophilus oryzae (rice weevil) assessed as mortality at 1000 ug/g after 20 days by food poison technique relative to acetone-treated control; type: functional
Triticum aestivum [28] = test: Phytotoxicity in Triticum aestivum (wheat) assessed as shoot growth at 500 ug/ml pre-soaked for 30 min measured after 72 hr relative to acetone-treated control; type: organism-based; conditions: in vivo
Triticum aestivum [29] = test: Phytotoxicity in Triticum aestivum (wheat) assessed as shoot growth at 500 ug/ml pre-soaked for 30 min measured after 96 hr relative to acetone-treated control; type: organism-based; conditions: in vivo
Triticum aestivum [30] = test: Phytotoxicity in Triticum aestivum (wheat) assessed as germination rate at 500 ug/ml pre-soaked for 60 min measured after 24 hr relative to acetone-treated control; type: organism-based; conditions: in vivo
Sitophilus oryzae [31] = test: Insecticidal activity against Sitophilus oryzae (rice weevil) assessed as mortality at 1000 ug/g after 10 days by food poison technique relative to acetone-treated control; type: functional

C=C1C(=O)O[C@@H]2C[C@@]3(C)CCCC(=C)[C@@H]3C[C@H]12 [ISOALANTOLACTONE]
Activity (Triticum aestivum [1]): 83.9%
mortality (Sitophilus oryzae [2]): 86.54%
Activity (Triticum aestivum [3]): 101.2%
LC50 (Sitophilus oryzae [4]): 610.51 µg/g
mortality (Sitophilus oryzae [5]): 55.38%
mortality (Sitophilus oryzae [6]): 33.33%
mortality (Sitophilus oryzae [7]): 100%
Activity (Triticum aestivum [8]): 106.7%
mortality (Sitophilus oryzae [9]): 69.23%
Activity (Triticum aestivum [10]): 84.6%
mortality (Sitophilus oryzae [11]): 100%
mortality (Sitophilus oryzae [12]): 19.04%
mortality (Sitophilus oryzae [13]): 58.97%
Activity (Sitophilus oryzae [14]): 12.13%
Activity (Sitophilus oryzae [15]): Dose-dependent effect
Activity (Triticum aestivum [16]): 82.5%
Activity (Triticum aestivum [17]): 63.7%
Activity (Triticum aestivum [18]): 100%
mortality (Sitophilus oryzae [19]): 100%
LC50 (Sitophilus oryzae [20]): 1234.57 µg/g
mortality (Sitophilus oryzae [21]): 76.19%
mortality (Sitophilus oryzae [22]): 23.81%
mortality (Sitophilus oryzae [23]): 100%
LC50 (Sitophilus oryzae [24]): 655.31 µg/g
mortality (Sitophilus oryzae [25]): 30.77%
Activity (Sitophilus oryzae [26]): 12.87%
mortality (Sitophilus oryzae [27]): 74.36%
Activity (Triticum aestivum [28]): 102%
Activity (Triticum aestivum [29]): 96%
Activity (Triticum aestivum [30]): 25%
mortality (Sitophilus oryzae [31]): 64.28%

Reference: ChEMBL document CHEMBL3046213, “Repellent, insecticidal and phytotoxic activities of isoalantolactone from Inula racemosa” (Crop Prot, 2006)
